Experimental data: PMC11477000, “Enantioselective Binding of Proton Pump Inhibitors to Alpha1-Acid Glycoprotein and Human Serum Albumin—A Chromatographic, Spectroscopic, and In Silico Study” (International Journal of Molecular Sciences, 2024)

Tests used:
HSA = molecular target: T1, HSA (Homo sapiens, UniProt P02768); conditions: ref [42]; cited from earlier work
T1 construct: purchased Sigma-Aldrich

[1] = tested on: α1-acid glycoprotein (AGP); test: van 't Hoff thermodynamic analysis on AGP column; assay type: binding, human; conditions: Δ(ΔH°)/Δ(ΔS°)
Description: The temperature effect was investigated at pH 7 and a 95:5 buffer:IPA eluents ratio, between 10 and 30 °C on both columns. […] The determination of thermodynamic parameters can provide valuable insights into the process of enantiodiscrimination, including its mechanistic aspects. The applied classical van ’t Hoff methodology postulates the existence of solely enantioselective interaction sites on the stationary phase. Nonetheless, it should be emphasized that a more realistic approach would encompass both enantioselective and non-enantioselective interactions. The isoenantioselective temperatures (Tiso) were calculated by dividing Δ(ΔH°) by Δ(ΔS°). At this temperature, enthalpy and entropy compensations negate each other, resulting in the coelution of the two enantiomers and no separation. […]
In the equation, R represents the universal gas constant, T represents the absolute temperature in Kelvin, and k represents the retention factor of the enantiomers. ΔH° stands for the standard enthalpy, while ΔS° represents the standard entropy change of transfer of the solute from the mobile phase to the stationary phase. Φ is the phase ratio of the column. […] Similarly, the difference in the change of standard enthalpy, Δ(ΔH°), and standard entropy, Δ(ΔS°), for the two enantiomers was calculated as follows:(6) lnα=−ΔΔH°/RT+ΔΔS°/R

T1 sequence (P02768 25-609): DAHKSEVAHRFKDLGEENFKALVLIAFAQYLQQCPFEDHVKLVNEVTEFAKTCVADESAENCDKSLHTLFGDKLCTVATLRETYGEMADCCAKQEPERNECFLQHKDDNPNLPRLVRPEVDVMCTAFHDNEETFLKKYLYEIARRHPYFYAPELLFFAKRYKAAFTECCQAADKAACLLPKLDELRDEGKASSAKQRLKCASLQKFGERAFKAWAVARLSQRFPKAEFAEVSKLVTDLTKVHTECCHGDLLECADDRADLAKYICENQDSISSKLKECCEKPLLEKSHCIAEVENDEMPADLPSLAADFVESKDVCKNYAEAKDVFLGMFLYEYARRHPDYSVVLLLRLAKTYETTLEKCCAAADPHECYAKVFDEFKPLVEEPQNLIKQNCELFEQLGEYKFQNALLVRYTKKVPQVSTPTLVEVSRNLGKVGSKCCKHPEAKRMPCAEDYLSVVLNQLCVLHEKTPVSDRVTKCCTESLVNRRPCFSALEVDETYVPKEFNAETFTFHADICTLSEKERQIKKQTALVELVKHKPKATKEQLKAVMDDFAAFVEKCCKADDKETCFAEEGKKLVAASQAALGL

Row | Compound | logK (HSA) | Tiso isoenantioselective temperature [1] [°C]
1 | Cc1c(OCC(F)(F)F)ccnc1C[S@@+]([O-])c1nc2ccccc2[nH]1 [R-lansoprazole, dexlansoprazole] | logK = 3.44 Binding to subdomain IIA | 
2 | Cc1c(OCC(F)(F)F)ccnc1C[S+]([O-])c1nc2ccccc2[nH]1 (centres unmarked) [Lansoprazole, lansoprazole] |  | −16.3
